Laboratory results from paper PMC4008261, “Rewiring of regenerated axons by combining treadmill training with semaphorin3A inhibition” (Molecular Brain, 2014).

Key:
Semaphorin = Semaphorin (Homo sapiens, UniProt Q14563); experiment: Pharmacological profile: semaphorin inhibition; format: cell-based
Excerpt: In our previous study, we used an osmotic mini-pump to deliver the semaphorin3A inhibitor SM-216289 [20]. However, in clinical practice, this type of invasive drug delivery method is not ideal. Therefore, we developed a novel DDS that utilizes a silicone matrix to continuously deliver SM-345431 (a newly developed semaphorin3A inhibitor) intrathecally. We evaluated the drug release profile of SM-345431 in this new silicone matrix preparation and the potency of SM-345431-mediated semaphorin3A inhibition in vitro (Figure 1). […] When chick embryonic DRG explants and semaphorin3A-expressing COS7 cell aggregates (semaphorin3A-COS) were co-cultured in a collagen gel, the neurites of the DRG explants grew away from the semaphorin3A-COS, as shown in Figure 1B. […] We also evaluated the selectivity of SM-345431 for semaphorin3A inhibition by examining the pharmacological profile of SM-345431 (Tables 1 and 2). […] The release of SM-345431 (0.1 mg/mg loading 10%) in vivo was calculated as 0.5-0.7 μg/day, and this dose was similar to the dose of the semaphorin3A inhibitor (SM-216289) that we administered using osmotic mini pumps in our previous study. […]

SCT adult rats = experiment: Kinematic analysis before and after re-transection; format: in vivo, rat
Procedure: A total of 53 adult female Sprague-Dawley rats (200-250 g, 10-12 weeks old) were used in this study (3 rats died during the experimental period and were excluded from the statistical analysis). All procedures were approved by the experimental animal care committee of Keio University, School of Medicine and Murayama Medical Center (approval #12-8). All rats were anesthetized with an intraperitoneal injection of ketamine (100 mg/kg)/xylazine (10 mg/kg). The spinal cord at the level of the T10 lamina was exposed by T10 laminectomy, and the dorsal dura mater was opened. The exposed spinal cord was cut along the inner edge of the vertebra with a sharp micro-scissor. […] Kinematic data were recorded using similar procedures prior to re-transection surgery (on the same day) and on the day following re-transection surgery. […]
To evaluate the locomotor capability of SCT rats in detail, the aforementioned robotic device was employed. Each robotic arm tracked the two-dimensional movement of the ankle, and the trajectory of the ankle movement was then recorded on a computer for kinematic analyses. […] Briefly, the ankle trajectory in each plane was recorded by the robotic arm and a computer. […] All kinematic characteristics were obtained when TO and PC were identified; as a result, parameters such as the duration phase, the swing phase of the step cycle and the length and height of the step were calculated. […]

Chain of Semaphorin (Q14563 21-771): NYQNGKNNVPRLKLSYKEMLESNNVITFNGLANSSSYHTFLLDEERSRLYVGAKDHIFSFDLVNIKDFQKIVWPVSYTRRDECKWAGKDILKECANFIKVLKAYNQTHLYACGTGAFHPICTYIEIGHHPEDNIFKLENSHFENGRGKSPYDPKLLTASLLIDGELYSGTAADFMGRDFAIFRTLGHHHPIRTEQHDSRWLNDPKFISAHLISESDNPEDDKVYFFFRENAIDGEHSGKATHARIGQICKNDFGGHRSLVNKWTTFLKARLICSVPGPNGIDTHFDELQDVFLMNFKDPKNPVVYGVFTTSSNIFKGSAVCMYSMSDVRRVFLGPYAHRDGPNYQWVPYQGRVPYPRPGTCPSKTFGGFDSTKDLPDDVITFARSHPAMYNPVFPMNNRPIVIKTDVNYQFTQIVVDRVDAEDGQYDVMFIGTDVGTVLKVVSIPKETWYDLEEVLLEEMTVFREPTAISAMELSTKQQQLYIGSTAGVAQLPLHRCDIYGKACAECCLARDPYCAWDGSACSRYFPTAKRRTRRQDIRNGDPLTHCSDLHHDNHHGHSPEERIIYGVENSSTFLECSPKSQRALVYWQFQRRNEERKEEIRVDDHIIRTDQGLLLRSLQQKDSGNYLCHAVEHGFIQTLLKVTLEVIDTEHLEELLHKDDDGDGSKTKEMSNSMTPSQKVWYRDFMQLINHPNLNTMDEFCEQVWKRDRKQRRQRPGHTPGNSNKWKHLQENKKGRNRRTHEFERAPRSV

CC(=O)c1cc2c(=O)c3c(C(=O)O)c(O)c(O)cc3oc2c(C(C)=O)c1-c1coc2cc(O)c(O)c(C(=O)O)c2c1=O [SM-345431, Vinaxanthone]
IC50 (Semaphorin): 100 to 200 nM | semaphorin3A inhibitory activity compared with SM-216289 (Semaphorin): approximately the same semaphorin3A inhibitory activity as SM-216289 | step cycle area after re-transection (SCT adult rats; SM-345431 alone, re-transection 12 weeks after the initial injury): tended to be attenuated | step ability after re-transection (SCT adult rats; SM-345431 combined with treadmill training, average step height P < 0.01, maximum step height P < 0.05): greater attenuations of step ability were observed
